Patent publication US3953501A, “Triiodoisophthalic acid monoamino acid amides” (Schering Aktiengesellschaft, priority 1972, dated 1976)
Where “and” joins values, the source holds several entries; their conditions need not be identical. Identical values can stand only once.

Legend:
Type in all cases: in vivo
[1] = system: rats; assay: Intracerebral compatibility according to Valzelli; conditions: methylglucamine salts, 200 mg. I/ml., dose evoking neurological symptoms (including convulsions and death) in 50% of animals, (1) = Iotalamat (H), (2) = compound
Method: (§1) All substances were tested as methylglucamine salts with 200 mg. I/ml. of solution. The intracerebral compatibility was determined on rats in accordance with Valzelli, Med. Exp. 11: 23-26 (1964).
(§2) As a measure of physiological compatibility, the ED50 was determined in each case, i.e., the dose at which an undesired array of neurological symptoms (including convulsions and death) is evoked in 50% of the animals.

[2] = system: rats; assay: Cisternal compatibility (injection into suboccipital cisterna); conditions: 0.008 - 0.200 ml./kg., methylglucamine salts, 200 mg. I/ml., neurological symptoms in 50% of animals, (1) = Iotalamat (H), (2) = compound
Method: as §1
In order to determine the cisternal compatibility, the test compounds were injected in varying doses (0.008 - 0.200 ml./kg.) by means of a Hamilton No. 710 syringe directly into the suboccipital cisterna of rats which were under a slight ether narcosis.
as §2

[3] = system: rats; assay: Cerebral compatibility (injection into left common carotid artery); conditions: 14.0 - 26.0 ml./kg., methylglucamine salts, 200 mg. I/ml., neurological symptoms in 50% of animals, (1) = Iotalamat (H), (2) = compound
Method: as §1
Cerebral compatibility was likewise determined on rats. In an operation under a slight ether narcosis, a catheter was affixed in the left common carotid artery; the distal end of the catheter, after having been passed through the lateral connective tissue of the neck, was fixed in the center of the back. Three hours later, the test compounds were cranially injected in varying doses (14.0 - 26.0 ml./kg.) into the artery.
as §2

In the case of `CNC(=O)CNC(=O)c1c(I)c(NC(=O)CO)c(I)c(C(=O)O)c1I` [G, N-(3-Carboxy-5-hydroxyacetamido-2,4,6-triiodobenzoyl)-glycine Methylamide], the “ED50 intracerebral compatibility according to Valzelli (myelography)” value [1] is reported as 62.62 mg. I/kg, the “ED50 cisternal compatibility (myelography)” value [2] is reported as 11.8 mg. I/kg and the “ED50 cerebral compatibility (angiography)” value (“ED50 cerebral compatibility” below) [3] is reported as 3.55 g I/kg.
For `CNC(=O)c1c(I)c(NC(C)=O)c(I)c(C(=O)N(C)CC(=O)O)c1I` [D, N-(3-Methylaminocarbonyl-5-acetamido-2,4,6-triiodobenzoyl)-sarcosine], the “ED50 intracerebral compatibility according to Valzelli (myelography)” value [1] was 76.21 mg. I/kg, the “ED50 cisternal compatibility (myelography)” value [2] was 11.93 mg. I/kg and the “ED50 cerebral compatibility” value [3] was 3.99 g I/kg.
In the case of `CNC(=O)C(C)NC(=O)c1c(I)c(NC(C)=O)c(I)c(C(=O)O)c1I` (racemic) [B, N-(3-Carboxy-5-acetamido-2,4,6-triiodobenzoyl)-DL-alanine Methylamide], the “ED50 intracerebral compatibility according to Valzelli (myelography)” value [1] is reported as 66.30 mg. I/kg and the “ED50 cisternal compatibility (myelography)” value [2] is reported as 16.7 mg. I/kg.
For `CNC(=O)C(CO)NC(=O)c1c(I)c(NC(=O)COC)c(I)c(C(=O)O)c1I` (racemic) [F, N-(3-Carboxy-5-methoxyacetamido-2,4,6-triiodobenzoyl)-DL-serine Methylamide], the “ED50 intracerebral compatibility according to Valzelli (myelography)” value [1] was 81.32 mg. I/kg, the “ED50 cisternal compatibility (myelography)” value [2] was 22.8 mg. I/kg and the “ED50 cerebral compatibility” value [3] was 3.78 g I/kg.
For `CNC(=O)CNC(=O)c1c(I)c(NC(=O)COC)c(I)c(C(=O)O)c1I` [C, N-(3-Carboxy-5-methoxyacetamido-2,4,6-triiodobenzoyl)-glycine Methylamide], the “ED50 intracerebral compatibility according to Valzelli (myelography)” value [1] was 53.97 mg. I/kg and the “ED50 cisternal compatibility (myelography)” value [2] was 20.04 mg. I/kg.
In the case of `CC(=O)Nc1c(I)c(C(=O)O)c(I)c(C(=O)NCC(N)=O)c1I` [A, N-(3-Carboxy-5-acetamido-2,4,6-triiodobenzoyl)-glycine Amide], the “ED50 intracerebral compatibility according to Valzelli (myelography)” value [1] is reported as 70.72 mg. I/kg and the “ED50 cisternal compatibility (myelography)” value [2] is reported as 11.17 mg. I/kg.
`CC(=O)Nc1c(I)c(C(N)=O)c(I)c(C(=O)NCC(=O)O)c1I` [E, N-(3-Aminocarbonyl-5-acetamido-2,4,6-triiodobenzoyl)-glycine] was tested, and the “ED50 intracerebral compatibility according to Valzelli (myelography)” value [1] was 69.84 mg. I/kg and the “ED50 cisternal compatibility (myelography)” value [2] was 14.42 mg. I/kg.
With `CNC(=O)c1c(I)c(NC(C)=O)c(I)c(C(=O)O)c1I` [H, 3-acetamido-5-methylcarbamoyl-2,4,6-triiodobenzoic acid, reference compound] the “ED50 intracerebral compatibility according to Valzelli (myelography)” value [1] was 59.83 mg. I/kg. and 56.59 mg. I/kg. and 60.86 mg. I/kg. and 61.92 mg. I/kg. and 61.28 mg. I/kg and the “ED50 cisternal compatibility (myelography)” value [2] was 10.56 mg. I/kg. and 11.8 mg. I/kg. and 9.8 mg. I/kg. and 10.9 mg. I/kg. and 10.07 mg. I/kg. and 10.30 mg. I/kg.
